According to US4077952A, “Somatostatin analogs” (American Home Products Corporation, priority 1977, dated 1978):
Positions of bridges follow the written chain, without caps; N, C: chain ends. Non-standard residues stand in square brackets, D forms with d. Residues, ends and D or L forms follow the SMILES beside them.

Assays:
Assay type in all cases: in vivo
Details in all cases: albino male rats, blood 15 min after compound, 5 min after arginine
glucagon (GLUN) = test: Suppression of glucagon in arginine-stimulated, nembutal-anesthetized rats
Description: (§1) Albino male rats are arranged in two groups (nine rats/group) and injected i.p. with nembutal at 50 mg/kg. Fifteen minutes after the nembutal injection they are injected s.c. according to group with test compound, or physiological saline. Ten minutes later 0.5 ml. of arginine (300 mg/ml. pH 7.2) is injected into the heart. The rats are decapitated five minutes after receiving the arginine, and the blood is collected into Trasylol-EDTA. Appropriate aliquots are then assayed for growth hormone (GH), glucagon (GLUN), and insulin (INS). […] Comparisons between control and experimental values are statistically evaluated by the analysis of variants method and statistical significance (p) at 0.05 or lower is used as the index of activity.

insulin (INS) = test: Suppression of insulin in arginine-stimulated, nembutal-anesthetized rats
Description: as §1

growth hormone (GH) = test: Suppression of growth hormone in arginine-stimulated, nembutal-anesthetized rats
Description: as §1

C[C@@H](O)[C@@H]1NC(=O)[C@H](Cc2ccccc2)NC(=O)[C@H]([C@@H](C)O)NC(=O)[C@H](CCCCN)NC(=O)[C@@H](Cc2c[nH]c3ccccc23)NC(=O)[C@H](Cc2ccccc2)NC(=O)[C@H](Cc2ccccc2)NC(=O)[C@H](Cc2c[nH]cn2)NC(=O)[C@H](CCCNC(=N)N)NC(=O)[C@@H](N)CSSC[C@@H](C(=O)O)NC(=O)[C@H](CO)NC1=O [Example 2, L-Cysteinyl-L-Arginyl-L-Histidyl-L-Phenylalanyl-L-Phenylalanyl-D-Tryptophyl-L-Lysyl-L-Threonyl-L-Phenylalanyl-L-Threonyl-L-Seryl-L-Cysteine Cyclic (1-12) Disulfide] (H-CRHFF[dW]KTFTSC-OH; disulfide 1-12)
GLUN plasma level (glucagon (GLUN); Experiment 1, 100 μg/kg s.c., saline control 61 ± 9): 0 ± 0 pg/mL
GLUN plasma level (glucagon (GLUN); Experiment 2, 10 μg/kg s.c., saline control 42 ± 6): 4 ± 3 pg/mL
INS plasma level (insulin (INS); Experiment 1, 100 μg/kg s.c., saline control 177 ± 19): 52 ± 16 μU/ml
INS plasma level (insulin (INS); Experiment 2, 10 μg/kg s.c., saline control 262 ± 26): 238 ± 72 μU/ml
GH plasma level (growth hormone (GH); Experiment 1, 100 μg/kg s.c., saline control 257 ± 49): 61 ng/mL
GH plasma level (growth hormone (GH); Experiment 2, 10 μg/kg s.c., saline control 131 ± 43): 71 ± 21 ng/mL
